Reference: PMC4601640, “Stability of the Human Hsp90-p50^Cdc37 Chaperone Complex against Nucleotides and Hsp90 Inhibitors, and the Influence of Phosphorylation by Casein Kinase 2” (Molecules, 2015)
Entries after “also recorded” stand apart in the source; their conditions may differ. Like-named read-outs stand apart in the source and are kept apart here.

Assays:
[1] = tested on: yeast Hsp90 complex formation with human p50^Cdc37 or yeast Cdc37 protein; design: method as in PMID 11916974; settings: ref [39]; cited from earlier work
[2] = molecular target: hHsp90β-FL; settings: read-out: Reported Kd, cited from earlier work
[3] = tested on: Hsp90β-p50^Cdc37 complex; design: method as in PMID 19858214; settings: ref [26]; cited from earlier work
[4] = molecular target: T1, Hsp90-p50^Cdc37 (Homo sapiens, UniProt P08238); assay: ELISA complex formation, immobilized GST-p50^Cdc37 and Hsp90β, unphosphorylated; type: binding; settings: for inhibitory activity against the complex: unphosphorylated or phosphorylated complex, in vitro; for IC50: ELISA, Hsp90-p50^Cdc37 (unphosphorylated)
T1 construct: The gene encoding human full-length Hsp90β was subcloned from T47D cell line cDNA; made in house; host or cells: E. coli BL21 Star (DE3) (Hsp90β); E. coli BL21 (DE3) (GST-p50Cdc37)

[5] = molecular target: yHsp82-FL; settings: yHsp82-FL; ref [34]; read-out: Reported Kd; cited from earlier work
[6] = molecular target: T2, hΔHsp90β (Homo sapiens, UniProt P08238, DEL220-271/E274G/I272G/K273G/K275G); assay: ITC direct binding to Hsp90β deletion mutant lacking the charged linker; settings: 50 mM HEPES pH 7.5, 10 mM MgCl2, 30 °C, read-out: Observed Kd
T2 construct: human Hsp90β (1-724 Δ220-275); His6 (N); made in house; host or cells: E. coli BL21 Star (DE3)
Text: The gene encoding human full-length Hsp90β was subcloned from T47D cell line cDNA, and human full-length CK2α was subcloned from MCF7 cell line cDNA, both a kind gift from Dr. Jonathan Lancaster, Moffitt Cancer Center. […] The deleted sections in the two Hsp90 genes were each replaced by four glycine residues. Hsp90α and Hsp90β were subcloned into the pET28a vector (Novagen), and p50^Cdc37 was subcloned into a modified pET28a vector containing a maltose-binding protein (MBP) solubility tag and a PreScission protease cleavage site using restriction enzymes BamHI and NotI (Fermentas) and T4 DNA ligase (Invitrogen) following the manufacturers’ instructions. BamHI was substituted with NdeI for full-length Hsp90β. p50^Cdc37 was also subcloned into the pGEX6P-1 vector (GE Healthcare) using the same procedure as above to provide an N-terminal GST-tag for GST pull-down and ELISA experiments. The plasmids were transformed into E. coli BL21 Star (DE3) (Hsp90α and Hsp90β, Invitrogen), Tuner (DE3) (p50^Cdc37 modified pET28a, Novagen), or BL21 (DE3) (p50^Cdc37 pGEX6P-1, Stratagene) expression strains. Transformed cells were grown in LB broth at 37 °C until the OD600 reached 0.4, then the temperature was lowered to 16 °C, and cells were induced with 0.1 mM IPTG at OD600 = 0.5–0.7. Cultures were then grown for 20–24 h before harvesting by centrifugation (30 min at 30,000× g, 4 °C).
(§1) Binding of p50^Cdc37 and small molecules to Hsp90 was analyzed using a MicroCal iTC200 titration calorimeter (GE Healthcare). Compounds or p50^Cdc37 were titrated into a solution of Hsp90 using the following concentrations: p50^Cdc37 (200 µM) into Hsp90 (20 µM), nucleotides (600 µM) into Hsp90 (30 µM), inhibitors (300 µM) into Hsp90 (30 µM). […] All experiments were conducted in 50 mM HEPES pH 7.5, 10 mM MgCl2 at 30 °C. For titration of inhibitors, the buffer contained 5% DMSO. […] Generation of heat due to dilution was determined in separate experiments by diluting protein into buffer and subtracting these as blank values for each injection. Corrected heat values were fitted using a nonlinear least squares curve-fitting algorithm (Microcal Origin 7.0) to obtain the stoichiometry (n), binding constants (Ka, Kd), and change in enthalpy for each enzyme-ligand interaction (ΔH).

[7] = molecular target: T3, hHsp90β-FL (Homo sapiens, UniProt P08238); assay: ITC direct binding to full-length Hsp90β; settings: for Kd: unphosphorylated hHsp90β-FL, 30 °C, read-out: Observed Kd
T3 construct: The gene encoding human full-length Hsp90β was subcloned from T47D cell line cDNA; His6 (N); made in house; host or cells: E. coli BL21 Star (DE3)
Protocol: as §1

[8] = molecular target: h(p)Hsp90β-FL (Homo sapiens, UniProt P08238); assay: ITC direct binding to CK2-phosphorylated full-length Hsp90β; settings: 30 °C, read-out: Observed Kd
Protocol: as §1

[9] = molecular target: T4, ΔHsp90-p50^Cdc37 (Homo sapiens, UniProt P08238, DEL220-271/E274G/I272G/K273G/K275G); assay: ELISA complex formation, ΔHsp90; type: binding
T4 construct: human Hsp90β (1-724 Δ220-275); made in house; host or cells: E. coli BL21 Star (DE3) (ΔHsp90β); E. coli BL21 (DE3) (GST-p50Cdc37)

[10] = molecular target: (p)Hsp90-p50^Cdc37 (Homo sapiens, UniProt P08238); assay: ELISA complex formation, CK2-phosphorylated Hsp90β; settings: ELISA
Protocol: (§2) Phosphorylation of full-length Hsp90β and p50^Cdc37 was performed using purified full-length CK2α. The reaction was carried out in a 2.5 mL volume containing 50 µM Hsp90β or p50^Cdc37, 0.5 µM CK2α, 0.5 mM ATP, 20 mM Tris (pH 7.5), 50 mM KCl, and 10 mM MgCl2, and was incubated for 1 h at 30 °C. Samples were removed for analysis of phosphorylation status, and the proteins were re-buffered into 50 mM HEPES (pH 7.5), 150 mM NaCl, and 1 mM DTT (ELISA), or into 50 mM HEPES (pH 7.5) for ITC, using PD-10 gravity columns (GE Healthcare). Dephosphorylation was performed using 2.5 units of FastAP (alkaline phosphatase from Thermo Scientific) in buffer containing 10 mM Tris (pH 8.0 at 37 °C), 5 mM MgCl2, 100 mM KCl, 0.02% Triton-X 100, and 0.5 mg/mL BSA for 1 h at 37 °C.
(§3) Purified GST-p50^Cdc37 (4 µM) or control (purified GST alone, 4 µM) was added to glutathione-coated 96-well plates (Pierce) in 100 μL protein buffer (50 mM HEPES, pH 7.5, 150 mM NaCl, 10 mM MgCl2, 0.05% Tween-20, and 0.1% BSA) and incubated for 1 h at room temperature (triplicate wells per sample). […] The mixtures were then added to the wells (100 μL per well, in triplicates) and incubated for 1 h at room temperature before washing. The wells were incubated with anti-His6-tag mAb (1 mg/mL stock, Abcam), diluted 1:2000 in antibody buffer (50 mM HEPES pH 7.5, 150 mM NaCl, 10 mM MgCl2, 0.05% Tween-20, and 1% BSA) for 1 h, followed by secondary antibody (horse anti-mouse HRP-conjugated IgG, Cell Signaling Technology), diluted 1:5000 in antibody buffer, for 1.5 h at room temperature. After washing three times with 1× HBS-T and two times with 1× HBS, 200 μL HRP substrate (SigmaFast OPD) was added per well. The plates were incubated at room temperature, and the absorbance was read at 450 nm after 15 min and 30 min using a SpectraMax 340 PC plate reader (Molecular Devices). For dose-response measurements, absorption values were corrected for unspecific binding of Hsp90 to immobilized GST, and the raw data were fit to equation (1), where f(I) is the fraction of complex remaining, [I] is the concentration of the inhibitor, IC50 is the half maximal inhibitory concentration against Hsp90-p50^Cdc37 complex formation, n is the Hill slope coefficient, min is the signal remaining at high inhibitor concentrations and max is the signal of the uninhibited complex. Corrected absorption values (ΔOD) for the uninhibited Hsp90-p50^Cdc37 complex (unphosphorylated and phosphorylated) were in the range of 0.4–1.0. Data were expressed relative to the respective max value of Equation (1). (1) f(I)=min+(max−min)/1+([I]/IC50)^n

[11] = molecular target: (p)Hsp90-(p)p50^Cdc37 (Homo sapiens, UniProt P08238); assay: ELISA complex formation, both proteins CK2-phosphorylated; settings: for disruption of the phosphorylated complex: CK2-phosphorylated complex; for IC50: ELISA, (p)Hsp90-(p)p50^Cdc37 (phosphorylated complex)
Protocol: as §2, §3

[12] = molecular target: T5, ΔHsp90β interaction with GST-p50^Cdc37 (Homo sapiens, UniProt P08238, DEL220-271/E274G/I272G/K273G/K275G); assay: GST pull-down of ΔHsp90β with GST-p50^Cdc37; type: binding; settings: for effect on complex in GST pull-down: 1 mM nucleotide or 0.1 mM inhibitor, 15 min incubation, SDS-PAGE
T5 construct: human Hsp90β (1-724 Δ220-275); made in house; host or cells: E. coli BL21 Star (DE3) (ΔHsp90β); E. coli BL21 (DE3) (GST-p50Cdc37)
Protocol: GST pull-down experiments were carried out using 1 mL GST 4 FastFlow resin in 8 mL Flex columns (Kontes). All experiments were performed at room temperature by gravity flow. Loading and wash buffers contained 50 mM Tris pH 8, 50 mM KCl, 5 mM MgCl2, and 5% DMSO. The elution buffer contained an additional 10 mM reduced glutathione. […] The resin was washed with 20 CV wash buffer, and samples were eluted with 2 CV elution buffer. Eluted protein was analysed on 12% SDS-PAGE stained with Coomassie blue for visualization.

[13] = molecular target: T6, Hsp90-(p)p50^Cdc37 (Homo sapiens, UniProt P08238); assay: ELISA complex formation, CK2-phosphorylated p50^Cdc37; type: binding
T6 construct: The gene encoding human full-length Hsp90β was subcloned from T47D cell line cDNA; made in house; host or cells: E. coli BL21 Star (DE3) (Hsp90β); E. coli BL21 (DE3) (GST-p50Cdc37)

[14] = molecular target: T7, interaction of the N-terminal domain of Hsp90β with p50^Cdc37 (Homo sapiens, UniProt P08238); assay: ITC of N-terminal Hsp90β with p50^Cdc37 in the presence of ADP; type: binding; settings: 5 mM ADP
T7 construct: human N-terminal Hsp90β (1-219, denoted Hsp90β-N); His6 (N); made in house; host or cells: E. coli BL21 Star (DE3) (Hsp90β-N); E. coli Tuner (DE3) (p50Cdc37)
Protocol: Binding of p50^Cdc37 and small molecules to Hsp90 was analyzed using a MicroCal iTC200 titration calorimeter (GE Healthcare). Compounds or p50^Cdc37 were titrated into a solution of Hsp90 using the following concentrations: p50^Cdc37 (200 µM) into Hsp90 (20 µM), nucleotides (600 µM) into Hsp90 (30 µM), inhibitors (300 µM) into Hsp90 (30 µM). Titrations of compounds into p50^Cdc37 were performed with similar compound/protein ratios. All experiments were conducted in 50 mM HEPES pH 7.5, 10 mM MgCl2 at 30 °C. For titration of inhibitors, the buffer contained 5% DMSO. Typically, an initial 0.5 µL injection was followed by 19 injections of 2.2 µL of syringe solution (compound or p50^Cdc37) into a 200 µL protein solution of Hsp90 constantly stirred at 1000 rpm, and data were recorded for 180 s between injections. Generation of heat due to dilution was determined in separate experiments by diluting protein into buffer and subtracting these as blank values for each injection. Corrected heat values were fitted using a nonlinear least squares curve-fitting algorithm (Microcal Origin 7.0) to obtain the stoichiometry (n), binding constants (Ka, Kd), and change in enthalpy for each enzyme-ligand interaction (ΔH).

Chain of h(p)Hsp90β-FL (P08238 whole entry): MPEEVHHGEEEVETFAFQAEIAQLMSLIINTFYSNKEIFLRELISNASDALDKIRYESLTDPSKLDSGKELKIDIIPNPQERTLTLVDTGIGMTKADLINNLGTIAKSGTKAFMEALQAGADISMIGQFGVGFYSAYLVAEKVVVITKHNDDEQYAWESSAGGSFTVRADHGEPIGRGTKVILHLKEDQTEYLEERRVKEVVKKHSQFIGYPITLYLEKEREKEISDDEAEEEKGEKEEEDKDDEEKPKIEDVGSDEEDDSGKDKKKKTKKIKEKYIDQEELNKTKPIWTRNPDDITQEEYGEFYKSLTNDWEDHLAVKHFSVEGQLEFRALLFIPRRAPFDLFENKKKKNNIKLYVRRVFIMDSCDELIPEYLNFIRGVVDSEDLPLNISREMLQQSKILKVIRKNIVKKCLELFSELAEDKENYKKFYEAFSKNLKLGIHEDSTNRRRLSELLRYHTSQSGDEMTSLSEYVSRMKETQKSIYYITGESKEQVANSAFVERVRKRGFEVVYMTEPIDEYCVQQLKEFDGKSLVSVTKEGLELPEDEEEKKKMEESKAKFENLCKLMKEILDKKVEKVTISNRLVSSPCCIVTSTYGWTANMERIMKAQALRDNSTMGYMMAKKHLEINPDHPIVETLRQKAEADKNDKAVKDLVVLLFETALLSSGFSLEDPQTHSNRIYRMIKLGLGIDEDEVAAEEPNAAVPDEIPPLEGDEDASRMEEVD
Chain of (p)Hsp90-p50^Cdc37 (P08238 whole entry): as above
Chain of (p)Hsp90-(p)p50^Cdc37 (P08238 whole entry): as above
T5 sequence (P08238 with tags, fused parts or gaps DEL220-271/I272G/K273G/E274G/K275G): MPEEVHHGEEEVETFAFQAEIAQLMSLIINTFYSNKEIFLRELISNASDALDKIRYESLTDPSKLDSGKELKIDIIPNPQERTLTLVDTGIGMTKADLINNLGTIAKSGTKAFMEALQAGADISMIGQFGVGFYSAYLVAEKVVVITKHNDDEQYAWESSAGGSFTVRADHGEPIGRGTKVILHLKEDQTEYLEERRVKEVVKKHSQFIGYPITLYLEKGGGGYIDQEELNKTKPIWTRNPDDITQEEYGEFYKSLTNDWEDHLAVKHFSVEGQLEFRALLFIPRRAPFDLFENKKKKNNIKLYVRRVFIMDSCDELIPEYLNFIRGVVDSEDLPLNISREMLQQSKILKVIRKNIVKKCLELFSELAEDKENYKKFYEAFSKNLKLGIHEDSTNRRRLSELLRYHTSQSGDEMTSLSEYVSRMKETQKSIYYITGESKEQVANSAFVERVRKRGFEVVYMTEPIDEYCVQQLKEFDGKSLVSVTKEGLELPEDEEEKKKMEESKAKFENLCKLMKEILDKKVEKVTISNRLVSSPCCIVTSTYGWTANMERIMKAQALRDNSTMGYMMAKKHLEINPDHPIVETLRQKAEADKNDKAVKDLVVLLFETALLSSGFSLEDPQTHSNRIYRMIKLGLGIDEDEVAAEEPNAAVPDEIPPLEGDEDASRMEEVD
T2 sequence (P08238 with tags, fused parts or gaps DEL220-271/I272G/K273G/E274G/K275G): as above
T4 sequence (P08238 with tags, fused parts or gaps DEL220-271/I272G/K273G/E274G/K275G): as above
T7 sequence (P08238 1-219): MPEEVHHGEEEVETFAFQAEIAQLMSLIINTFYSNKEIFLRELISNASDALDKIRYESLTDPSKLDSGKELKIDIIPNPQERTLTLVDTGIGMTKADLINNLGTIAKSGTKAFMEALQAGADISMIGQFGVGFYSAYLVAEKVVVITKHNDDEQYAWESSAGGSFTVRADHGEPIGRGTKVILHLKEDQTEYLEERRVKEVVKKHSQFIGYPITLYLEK

Compound: COC1=C2C[C@@H](C)C[C@H](OC)[C@H](O)[C@@H](C)/C=C(\C)[C@H](OC(N)=O)[C@@H](OC)/C=C\C=C(/C)C(=O)NC(=CC1=O)C2=O [geldanamycin]
- influence on complex formation [1]: did not influence complex formation

Compound: CO[C@H]1/C=C\C=C(/C)C(=O)NC2=CC(=O)C(NCCN(C)C)=C(C[C@@H](C)C[C@H](OC)[C@H](O)[C@@H](C)/C=C(\C)[C@@H]1OC(N)=O)C2=O [17-DMAG]
- Kd ([2]; ref [33]): 0.35 µM
- effect on complex formation between Hsp90β and p50^Cdc37 [3]: showed no effect

Compound: CCNC(=O)c1noc(-c2cc(C(C)C)c(O)cc2O)c1-c1ccc(CN2CCOCC2)cc1 [NVP-AUY922]
- inhibitory activity against the complex [4]: did not show appreciable inhibitory activity
- Kd ([2]; ref [32]): 0.0017 µM

Compound: C=CCNC1=C2C[C@@H](C)C[C@H](OC)[C@H](O)[C@@H](C)/C=C(\C)[C@H](OC(N)=O)[C@@H](OC)/C=C\C=C(/C)C(=O)NC(=CC1=O)C2=O [17-AAG, Tanespimycin]
- effect on complex formation between Hsp90β and p50^Cdc37 [3]: showed no effect

Compound: C[C@@H]1C[C@H]2O[C@@H]2/C=C\C=C\C(=O)Cc2c(Cl)c(O)cc(O)c2C(=O)O1 [Radicicol]
- Kd [5]: 0.019 µM

Compound: Nc1ncnc2c1ncn2[C@@H]1O[C@H](COP(=O)(O)OP(=O)(O)NP(=O)(O)O)[C@@H](O)[C@H]1O [AMP-PNP]
- Kd [6]: 84 µM
- Kd [7]: 85 µM
- Kd [8]: 590 µM
- IC50 [4]: > 1000 µM
- inhibitory activity against the complex [4]: did not show appreciable inhibitory activity
- IC50 [9]: > 1000 µM
- Kd ([2]; ref [31]): 148 µM
- IC50 ([10]; (p)Hsp90-p50^Cdc37): > 1000 µM
- disruption of the phosphorylated complex [11]: remained largely ineffective
- IC50 [11]: > 1000 µM

Compound: O=C(O)CCc1nn(Cc2ccc(Cl)cc2Cl)c2cc(C(F)(F)F)ccc12 [H2-GMZ, H2-gamendazole]
- binding potential towards Hsp90β ([7]; Figure 3): failed to display binding potential
- IC50 [4]: > 1000 µM
- inhibitory activity against the complex [4]: did not show appreciable inhibitory activity
- inhibitory activity against the complex ([4]; listed as H2-gamendazole): did not affect the interaction of Hsp90 with p50^Cdc37 in vitro
- IC50 [9]: > 1000 µM
- effect on complex in GST pull-down [12]: ineffective
- protection of the complex from ADP in GST pull-down competition ([12]; in the presence of ADP, 0.1 mM radicicol): had no effect
- IC50 ([10]; (p)Hsp90-p50^Cdc37): > 1000 µM
- IC50 [11]: > 1000 µM

Compound: Nc1ncnc2c1ncn2[C@@H]1O[C@H](COP(=O)(O)OP(=O)(O)O)[C@@H](O)[C@H]1O [ADP]
- Kd [6]: 11 µM
- Kd [7]: 8.9 µM
- Kd [8]: 13 µM
- IC50 [4]: 500 ± 94 µM
- IC50 [13]: 270 ± 35 µM
- IC50 [9]: 400 ± 81 µM
- effect on complex in GST pull-down [12]: inhibited formation of the complex; also recorded: caused disruption of the complex
- interaction of N-terminal Hsp90β with p50^Cdc37 in the presence of ADP [14]: abolished
- Kd ([2]; ref [31]): 7.2 µM
- effect on complex formation between Hsp90β and p50^Cdc37 [3]: did not exert inhibitory activity; also recorded: showed no effect
- IC50 ([10]; (p)Hsp90-p50^Cdc37): 220 ± 24 µM
- IC50 ([10]; span: phosphorylation of either Hsp90 or p50^Cdc37): 220 to 270 µM
- IC50 [11]: 32 ± 5.6 µM

Compound: Nc1ncnc2c1ncn2[C@@H]1O[C@H](COP(=O)(O)OP(=O)(O)OP(=O)(O)O)[C@@H](O)[C@H]1O [ATP]
- Kd [6]: 43 µM
- Kd [7]: 4.6 µM
- Kd [8]: 11 µM
- IC50 [4]: > 1000 µM
- IC50 [13]: > 1000 µM
- IC50 [9]: > 1000 µM
- effect on complex in GST pull-down [12]: stable complex
- Kd ([2]; ref [31]): 240 µM
- IC50 ([10]; (p)Hsp90-p50^Cdc37): 450 ± 150 µM
- disruption of the phosphorylated complex [11]: remained largely ineffective
- IC50 [11]: 230 ± 40 µM

Compound: (p)p50^Cdc37: human p50^Cdc37 phosphorylated by CK2 at residue Ser13
- Kd [8]: 1.9 ± 0.13 µM
